Results published in US8604061B2, “2-aminooxazolines as TAAR1 ligands” (Hoffmann-La Roche Inc., priority 2007, dated 2013).

Each compound was assayed against TAAR1 (Mus musculus, UniProt Q923Y8) (assay: TAAR1 radioligand binding, membranes of stably transfected HEK293 cells (mouse)). Conditions: not given.
Outline: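 Competition binding on membranes from HEK293 cells stably expressing the TAAR1 species ortholog, in HEPES-NaOH pH 7.0 with 10 mM MgCl2 and 2 mM CaCl2, 30 min at 4° C with [3H]-rac-2-(1,2,3,4-tetrahydro-1-naphthyl)-2-imidazoline. Competitors 10 pM–30 μM, duplicates; non-specific binding with 10 μM unlabelled ligand; filtration and scintillation counting.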

Question: With COc1ccc(C2COC(N)=N2)cc1Cl (racemic) [Example 36, (RS)-4-(3-Chloro-4-methoxyphenyl)-4,5-dihydro-oxazol-2-ylamine] as the compound, how does the Ki read?
Answer: 0.0034 µM

Question: For NC1=NC(c2cccc3ccccc23)CO1 (racemic) [Example 34, (RS)-4-Naphthalen-1-yl-4,5-dihydro-oxazol-2-ylamine], which Ki is on record?
Answer: 0.0011 µM

Question: For NC1=N[C@@H](c2ccc(F)cc2F)CO1 [37b (S), (S)-4-(2,4-Difluoro-phenyl)-4,5-dihydro-oxazol-2-ylamine], which Ki is on record?
Answer: 0.0087 µM

Question: NC1=NC(c2ccc(Br)c(F)c2)CO1 (racemic) [Example 252, (RS)-4-(4-Bromo-3-fluoro-phenyl)-4,5-dihydro-oxazol-2-ylamine] was tested. Which Ki did it give?
Answer: 0.0008 µM

Question: NC1=NC(c2ccc(Br)cc2F)CO1 (racemic) [Example 349, (RS)-4-(4-Bromo-2-fluoro-phenyl)-4,5-dihydro-oxazol-2-ylamine] was tested. Which Ki did it give?
Answer: 0.0023 µM

Question: Which Ki does the source give for NC1=NC(c2ccc(OCc3ccccc3)cc2)CO1 (racemic) [Example 22, (RS)-4-(4-Benzyloxy-phenyl)-4,5-dihydro-oxazol-2-ylamine] here?
Answer: 0.0011 µM

Question: For Cc1ccccc1C1COC(N)=N1 (racemic) [Example 8, (RS)-4-o-Tolyl-4,5-dihydro-oxazol-2-ylamine], which Ki is on record?
Answer: 0.0058 µM

Question: With Cc1ccc(C2COC(N)=N2)cc1Cl (racemic) [Example 351, (RS)-4-(3-Chloro-4-methyl-phenyl)-4,5-dihydro-oxazol-2-ylamine] as the compound, how does the Ki read?
Answer: 0.0024 µM

Question: With NC1=NC(C2CCc3ccccc3C2)CO1 (racemic) [Example 84, (RS)-4-(1,2,3,4-Tetrahydro-naphthalen-2-yl)-4,5-dihydro-oxazol-2-ylamine] as the compound, how does the Ki read?
Answer: 0.0017 µM

Question: NC1=NC(CCc2ccccc2)CO1 (racemic) [D, (RS)-4-Phenethyl-4,5-dihydro-oxazol-2-ylamine, reference compound] was tested. Which Ki did it give?
Answer: 0.001 µM

Question: How did the Ki turn out when NC1=NC(c2ccc(Br)cc2C(F)(F)F)CO1 (racemic) [Example 302, (RS)-4-(4-Bromo-2-trifluoromethyl-phenyl)-4,5-dihydro-oxazol-2-ylamine] was run?
Answer: 0.0017 µM

Question: Which Ki does the source give for NC1=NC(c2ccc3c(c2)OCCO3)CO1 (racemic) [Example 32, (RS)-4-(2,3-Dihydro-benzo[1,4]dioxin-6-yl)-4,5-dihydro-oxazol-2-ylamine] here?
Answer: 0.0029 µM

Same assay, conditions: mouse/rat; cell not marked 'rat'; radioligand [3H]-rac-2-(1,2,3,4-tetrahydro-1-naphthyl)-2-imidazoline, 4° C.; read-out: Ki (μM) mouse/rat

Question: Which Ki does the source give for NC1=N[C@@H](CCc2cc(C(F)(F)F)ccc2F)CO1 [Example 156, (S)-4-[2-(2-Fluoro-5-trifluoromethyl-phenyl)-ethyl]-4,5-dihydro-oxazol-2-ylamine] here?
Answer: 0.0064 µM

Question: CC(C[C@H]1COC(N)=N1)c1ccc(Cl)c(Cl)c1 (stereo partly drawn) [Example 221, (S)-4-[2-(3,4-Dichloro-phenyl)-propyl]-4,5-dihydro-oxazol-2-ylamine] was tested. Which Ki did it give?
Answer: 0.0022 µM

Question: How did the Ki turn out when NC1=N[C@@H](c2ccccc2Br)CO1 [Example 265, (+)-(S)-4-(2-Bromo-phenyl)-4,5-dihydro-oxazol-2-ylamine] was run?
Answer: 0.0009 µM

Question: With NC1=N[C@@H](CCc2ccc(C(F)(F)F)cc2)CO1 [Example 119, (S)-4-[2-(4-Trifluoromethyl-phenyl)-ethyl]-4,5-dihydro-oxazol-2-ylamine] as the compound, how does the Ki read?
Answer: 0.0026 µM

Question: CCC(C[C@H]1COC(N)=N1)c1cccc(F)c1 (stereo partly drawn) [Example 340, (S)-4-[2-(3-Fluoro-phenyl)-butyl]-4,5-dihydro-oxazol-2-ylamine] was tested. Which Ki did it give?
Answer: 0.002 µM

Question: Which Ki does the source give for Cc1ccc([C@H]2COC(N)=N2)cc1Cl [Example 374, (+)-(S)-4-(3-Chloro-4-methyl-phenyl)-4,5-dihydro-oxazol-2-ylamine] here?
Answer: 0.0006 µM

Question: How did the Ki turn out when NC1=N[C@@H](CCc2cc(F)cc(C(F)(F)F)c2)CO1 [Example 159, (S)-4-[2-(3-Fluoro-5-trifluoromethyl-phenyl)-ethyl]-4,5-dihydro-oxazol-2-ylamine] was run?
Answer: 0.001 µM

Question: For C[C@]1(c2cc(F)cc(Cl)c2)COC(N)=N1 [Example 266, (S)-4-(3-Chloro-5-fluoro-phenyl)-4-methyl-4,5-dihydro-oxazol-2-ylamine], which Ki is on record?
Answer: 0.0016 µM

Question: NC1=N[C@H](CCc2ccccc2)CO1 [80 (R), (R)-4-phenethyl-4,5-dihydro-oxazol-2-ylamine] was tested. Which Ki did it give?
Answer: 0.0083 µM

Question: Which Ki does the source give for NC1=N[C@@H](c2cc(Cl)c(Cl)cc2C(F)(F)F)CO1 [Example 242, (+)-(S)-4-(4,5-Dichloro-2-trifluoromethyl-phenyl)-4,5-dihydro-oxazol-2-ylamine] here?
Answer: 0.0072 µM

Question: Which Ki does the source give for C[C@]1(CCc2ccc(Cl)cc2)COC(N)=N1 [Example 244, (S)-4-[2-(4-Chloro-phenyl)-ethyl]-4-methyl-4,5-dihydro-oxazol-2-ylamine] here?
Answer: 0.0057 µM

Question: For CCC(C[C@H]1COC(N)=N1)c1ccccc1F (stereo partly drawn) [Example 223, (S)-4-[2-(2-Fluoro-phenyl)-butyl]-4,5-dihydro-oxazol-2-ylamine], which Ki is on record?
Answer: 0.0059 µM

Question: For NC1=N[C@@H](CCc2ccccc2F)CO1 [Example 111, (S)-4-[2-(2-Fluoro-phenyl)-ethyl]-4,5-dihydro-oxazol-2-ylamine], which Ki is on record?
Answer: 0.0011 µM

Question: Which Ki does the source give for NC1=N[C@@H](COc2cccc(Cl)c2)CO1 [Example 343, (S)-4-(3-Chloro-phenoxymethyl)-4,5-dihydro-oxazol-2-ylamine] here?
Answer: 0.0028 µM

Question: How did the Ki turn out when NC1=N[C@@H](COc2ccccc2F)CO1 [Example 354, (S)-4-(2-Fluoro-phenoxymethyl)-4,5-dihydro-oxazol-2-ylamine] was run?
Answer: 0.0003 µM

Question: With NC1=N[C@@H](c2ccc(F)c(F)c2)CO1 [Example 166, (S)-4-(3,4-Difluoro-phenyl)-4,5-dihydro-oxazol-2-ylamine] as the compound, how does the Ki read?
Answer: 0.0047 µM

Question: For NC1=N[C@@H](c2cc(F)ccc2F)CO1 [Example 101, (S)-4-(2,5-Difluoro-phenyl)-4,5-dihydro-oxazol-2-ylamine], which Ki is on record?
Answer: 0.0034 µM

Question: For NC1=N[C@@H](c2ccc(F)c(Br)c2F)CO1 [Example 29 (S), (S)-4-(3-Bromo-2,4-difluoro-phenyl)-4,5-dihydro-oxazol-2-ylamine], which Ki is on record?
Answer: 0.0054 µM

Question: How did the Ki turn out when NC1=N[C@@H](c2ccc(F)cc2C(F)(F)F)CO1 [Example 248, (+)-(S)-4-(4-Fluoro-2-trifluoromethyl-phenyl)-4,5-dihydro-oxazol-2-ylamine] was run?
Answer: 0.0029 µM

Question: With NC1=N[C@@H](c2ccc(Br)cc2F)CO1 [Example 367, (+)-(S)-4-(4-Bromo-2-fluoro-phenyl)-4,5-dihydro-oxazol-2-ylamine] as the compound, how does the Ki read?
Answer: 0.001 µM

Question: For NC1=N[C@@H](c2ccc(Cl)cc2C(F)(F)F)CO1 [Example 238, (+)-(S)-4-(4-Chloro-2-trifluoromethyl-phenyl)-4,5-dihydro-oxazol-2-ylamine], which Ki is on record?
Answer: 0.003 µM

Question: With NC1=N[C@@H](c2ccc(Br)cc2)CO1 [Example 105, (S)-4-(4-Bromo-phenyl)-4,5-dihydro-oxazol-2-ylamine] as the compound, how does the Ki read?
Answer: 0.0007 µM

Question: NC1=N[C@@H](c2ccc(F)c(F)c2F)CO1 [Example 301, (+)-(S)-4-(2,3,4-Trifluoro-phenyl)-4,5-dihydro-oxazol-2-ylamine] was tested. Which Ki did it give?
Answer: 0.0023 µM

Question: How did the Ki turn out when NC1=N[C@@H](c2cc(F)cc(Cl)c2)CO1 [Example 178, (S)-4-(3-Chloro-5-fluoro-phenyl)-4,5-dihydro-oxazol-2-ylamine] was run?
Answer: 0.0004 µM

Question: NC1=N[C@@H](CCc2cccc(Br)c2)CO1 [Example 143, (S)-4-[2-(3-Bromo-phenyl)-ethyl]-4,5-dihydro-oxazol-2-ylamine] was tested. Which Ki did it give?
Answer: 0.0007 µM

Question: Which Ki does the source give for NC1=N[C@@H](Cc2ccc3ccccc3c2)CO1 [Example 49, (S)-4-Naphthalen-2-ylmethyl-4,5-dihydro-oxazol-2-ylamine] here?
Answer: 0.0054 µM

Question: With CCC(C[C@H]1COC(N)=N1)c1ccc(F)c(F)c1 (stereo partly drawn) [Example 211, (S)-4-[2-(3,4-Difluoro-phenyl)-butyl]-4,5-dihydro-oxazol-2-ylamine] as the compound, how does the Ki read?
Answer: 0.0024 µM

Question: Which Ki does the source give for NC1=N[C@@H](CCc2ccc(Cl)c(Cl)c2)CO1 [Example 127, (S)-4-[2-(3,4-Dichloro-phenyl)-ethyl]-4,5-dihydro-oxazol-2-ylamine] here?
Answer: 0.0003 µM

Question: C[C@]1(CCc2ccc(F)cc2)COC(N)=N1 [Example 255, (S)-4-[2-(4-Fluoro-phenyl)-ethyl]-4-methyl-4,5-dihydro-oxazol-2-ylamine] was tested. Which Ki did it give?
Answer: 0.0074 µM
